“And” between values parts separate entries of the source, which are not always exact repeats. Identical values can stand only once.

The source of these data is patent US20050271739A1, “Methods and compositions for accelerating alcohol metabolism” (priority 2004, published 2005).

The test system of data set [1] is alcohol dehydrogenase. Kind of data set: Effect of thyroxine analogues on alcohol dehydrogenase activity. The format is biochemical. Conditions: for Relative Increase (%): None = 100.
Data set [2] relates to alcohol dehydrogenase. Kind of data set: Effect of hormonal compounds on enzyme activity of alcohol dehydrogenase. The format is biochemical. Also on record: Relative activity (%): concentration or dose not given beside the values. Conditions: for Relative activity (%): Control = 100.0.
For data set [3] the following is noted: blood alcohol reading; cited from earlier work.
Data set [4] has as its system malate-aspartate shuttle in rabbit liver mitochondria. Kind of data set: NADH oxidation by malate-aspartate shuttle in liver mitochondria. The format is biochemical. The note with it: for Effect on oxidation of NADH: added to rabbit liver mitochondria.
For data set [5], the system named is aldehyde dehydrogenase. Kind of data set: Thyroxine stimulation of aldehyde dehydrogenase activity. In kind it is biochemical. From the text: Thyroxine has extremely high stimulating effect on the enzyme activity of alcohol dehydrogenases and aldehyde dehydrogenases. […] Some are as twice effective as thyroxine at the same concentration.
For data set [6], the system named is Alcohol dehydrogenase (from Sigma Aldrich Chemical Company). Kind of data set: Alcohol dehydrogenase activity vs. NAD concentration. The format is biochemical. Conditions: Tris Buffer pH 8.5, ethanol 3% (V/V), ADH 5 units, 340 nm. The protocol: Testing conditions: 0.05 M Tris Buffer (pH=8.5); ethanol=3% (V/V); Alcohol dehydrogenase (from Sigma Aldrich Chemical Company): 5 units. ADH activity was determined by measuring absorbance change at 340 nm.

Data set [7] deals with alcohol dehydrogenase prepared from yeast extract. Kind of data set: NAD regeneration through coupling reactions with yeast extract ADH, INT and diaphorase. In kind it is biochemical. The note with it: 0.5 mM and 2.0 mM NAD, ethanol 1.0% (V/V), pH 7.5. The protocol:
Phosphate buffer: 0.05 M (pH=7.5); ethanol: 1.0% (V/V). There was no absorbance change in the absence of NAD.
Phosphate buffer: 0.05 M (pH=7.5); INT: 12.7 mM; ethanol: 1.0% (V/V); NAD=2.0 mM; Diaphorase: 2 units.
In this example, the INT system was selected to illustrate the effectiveness of the regeneration of NAD by coupling compounds, since the reaction product, i.e., formazan, gives a maximum absorbance at 500 nm. Then the coupling reactions (see FIG. 6) can be directly quantified by spectrophotometric measurements.

Data set [8] relates to oxidation of ethanol and acetaldehyde. Description: Absorbance change of pig liver extract without INT (340 nm) and with INT (500 nm). In kind it is biochemical. Conditions: animal glandular extract, in the presence of INT. Here is the method: Phosphate buffer: 0.05 M (pH=7.5); INT: 12.7 mM; ethanol: 1.0% (V/V); aldehyde: 17.6 mM. No NAD was added.
As described in testing method f, in the presence of diaphorases, INT is reduced to forzaman, while NADH is oxidized to NAD in a 1:1 mole stoichiometric ratio. Therefore, the increase in the absorbance at 500 nm is directly proportional to the concentration of forzaman.
FIG. 3 and Table 4 show the change of absorbance at 500 nm versus time. […] Since NAD and NADH are high very difficult to purify, the costs of use of external high purity NAD has been proven to be prohibitively high. The present invention provides a cost-effective method for preparing the enzyme-coenzyme formulation.

Data set [9] relates to blood alcohol. Kind of data set: In vivo test of alcohol metabolism by dog (blood alcohol reading). The protocol: Dog body weight: 13.9 kilograms. 42 grams of alcohol was administrated at time 0. ●—Control (i.e., no further treatment in the first 5 hours); ▪—10 grams pyruvate was administrated orally at 5 hours; ▴ 10 grams of alanine was administrated at 1.5 hour and then 5 hours.
In this example, the effectiveness of using compositions described above for accelerating alcohol metabolism was validated by in vivo tests with dogs. Six dogs (as described in Table 9) were used in the in vivo tests. The dogs were fasted 12 to 16 hours and then given 20% alcohol orally in a dose of 3 g/kg body weight. Approximately 1.5 hours were allowed for complete absorption and distribution of the alcohol. Blood samples were taken from the leg veins. The blood alcohol reading (BAR) was determined by measuring alcohol concentration in blood using the Sigma Aldrich alcohol assay method (Assay No. 333).

Setting [10] is: average of the dog tests, 5 or 10 g.

As for `O=C(O)CCc1cc(I)c(Oc2ccc(O)c(I)c2)c(I)c1` [3,3′5-triiodothyropropionic acid], in data set [1] (Dosage 17 μM), the “Absorbance Change (units/min @ 340 nm)” value is on record as 0.676 units/min and the “Relative Increase (%)” value is recorded as 676%. As to `C[C@]12CC[C@H](O)CC1=CC[C@@H]1[C@@H]2CC[C@]2(C)C(=O)CC[C@@H]12` [Dehydroepi-androsterone], the “Relative activity (%)” value in [2] was determined as 200%. Same read-out and setting: the same measure for `C[C@]12CC[C@@H](O)C[C@@H]1CC[C@@H]1[C@@H]2CC[C@]2(C)C(=O)CC[C@@H]12` [Androsterone]: 119%. Take `CCO` [Alcohol, ethanol]: in [3], the “Anesthetic effects (BAR)” value was “(0.30-0.40%)” and the “Death; LD50 (BAR)” value is “(0.45-0.50%)”. For the compound `CC12CCC(=O)C=C1CCC1C2CCC2(C)C(O)CCC12` (centres unmarked) [Testerone], the “Relative activity (%)” value in [2] came out at 137%. As for `C[C@]12C[C@H](O)[C@H]3[C@@H](CCC4=CC(=O)CC[C@@]43C)[C@@H]1CC[C@@H]2C(=O)CO` [Corticosterone], the “Relative activity (%)” value in [2] worked out at 112%. Turning to `NC(Cc1ccc(Oc2ccc(O)cc2)cc1)C(=O)O` (racemic) [DL-thyronine], in data set [1] (Dosage 17 μM), the “Absorbance Change (units/min @ 340 nm)” value was found to be 0.535 units/min and the “Relative Increase (%)” value was found to be 535%. Take SodiumL-aspartate: the “Effect on oxidation of NADH” value in [4] is “substantially increases the oxidation of NADH”. As to `O=C(O)Cc1cc(I)c(Oc2ccc(O)c(I)c2)c(I)c1` [3,3′5-triiodothyroacetic acid], in [1] (Dosage 17 μM), the “Absorbance Change (units/min @ 340 nm)” value worked out at 0.715 units/min and the “Relative Increase (%)” value is reported as 715%. Turning to `N[C@@H](Cc1cc(I)c(Oc2cc(I)c(O)c(I)c2)c(I)c1)C(=O)O` [L-thyroxine, L-Thyroxine], in data set [1] (Dosage 17 μM), the “Absorbance Change (units/min @ 340 nm)” value amounted to 0.30 units/min and the “Relative Increase (%)” value is on record as 300%. The “Increase of enzyme activity” value in [5] (as little as 2 μM) was > 100%. Further, the “Effect on alcohol and aldehyde dehydrogenases at high dosages” value in data set [5] (high dosages) is “becomes an inhibitor of the enzymes”. With `CC/C(=C(/CC)c1ccc(O)cc1)c1ccc(O)cc1` [Diethylstilbestrol], the “Increase of alcohol dehydrogenase activity” value in data set [2] (as low as 10 μM) was “more than 100%”.

Consider `O=C([O-])CC(O)C(=O)[O-].[Na+].[Na+]` (racemic) [malate, DL-Hydroxybutanedioic acid], for which, in [4], the “Effect on oxidation of NADH” value is recorded as “substantially increases the oxidation of NADH”. Besides, the “Relative effectiveness in NADH oxidation” value in [4] (malate vs. aspartate) is recorded as “more effective than aspartate”.

For the compound `NC(=O)c1ccc[n+]([C@@H]2O[C@H](COP(=O)([O-])OP(=O)(O)OC[C@H]3O[C@@H](n4cnc5c(N)ncnc54)[C@H](O)[C@@H]3O)[C@@H](O)[C@H]2O)c1` [NAD, Nicotinamide Adenine Dinucleotide (NAD)], in data set [6], the “Alcohol oxidation by alcohol dehydrogenase vs. NAD concentration” value is on record as “increases with increasing NAD concentration”. In data set [7], the “Absorbance on addition of NAD” value is “increases the absorbance”. Consider `O=[N+]([O-])c1ccc(-n2nc(-c3ccccc3)n[n+]2-c2ccc(I)cc2)cc1.[Cl-]` [INT], for which the “Effect of INT on oxidation of ethanol and acetaldehyde” value in [8] is listed as “enhanced substantially”. For `N[C@@H](Cc1cc(Br)c(Oc2ccc(O)c(I)c2)c(Br)c1)C(=O)O` [3,5-dibromo-3′-iodo-thyronine], in data set [1] (Dosage 17 μM), the “Absorbance Change (units/min @ 340 nm)” value is on record as 0.48 units/min and the “Relative Increase (%)” value amounted to 480%. Turning to `C[C@]12CCC(=O)C=C1CC[C@@H]1[C@@H]2C(=O)C[C@@]2(C)[C@H]1CC[C@]2(O)C(=O)CO` [Cortisone], in [2], the “Relative activity (%)” value was found to be 116%.

Consider `O=C(O)CCc1ccc(Oc2cc(I)c(O)c(I)c2)c(I)c1` [3,3′5′-triiodothyropropionic acid], for which, in data set [1] (Dosage 17 μM), the “Absorbance Change (units/min @ 340 nm)” value amounted to 0.865 units/min and the “Relative Increase (%)” value came to 865%. `CC(=O)C(=O)[O-].[Na+]` [sodium pyruvate, Pyruvic acid sodium salt]: in data set [9] (setting [10]), the “BAR Reduction Rate after first dose, Average” value stood at 211.4 ppm/hr and the “BAR Reduction Rate after second dose, Average” value stood at 197.9 ppm/hr. The “BAR Reduction Rate after first dose” value in data set [9] (dog, oral, 5 g, first dosing at 266-410 min after ethanol 3 g/kg, sodium salt) was 212 ppm/hr and 160 ppm/hr and 253 ppm/hr and 252 ppm/hr. The “BAR Reduction Rate after second dose” value in data set [9] (dog, oral, 10 g, second dosing at 310-464 min, sodium salt) is 256 ppm/hr and 230 ppm/hr. For the compound `C[C@]12CC[C@H]3[C@@H](CCC4=CC(=O)CC[C@@]43C)[C@@H]1CC[C@@H]2C(=O)CO` [Deoxycorticosterone], the “Relative activity (%)” value in [2] turned out to be 115%. `CC(=O)[C@H]1CC[C@H]2[C@@H]3CCC4=CC(=O)CC[C@]4(C)[C@H]3CC[C@]12C` [Progesterone]: the “Relative activity (%)” value in data set [2] is recorded as 120%. Still for that read-out and setting: the value for `C[C@]12CCC(=O)C=C1CC[C@@H]1[C@@H]2CC[C@]2(C)C(=O)CC[C@@H]12` [4-Androsterone-3,17-dione] was 128%. In the case of `N[C@@H](Cc1cc(I)c(O)c(I)c1)C(=O)O` [3,5-diiodo-l-thyrosine], in data set [1] (Dosage 170 μM), the “Absorbance Change (units/min @ 340 nm)” value amounted to 0.256 units/min and the “Relative Increase (%)” value is recorded as 256%. Besides, in data set [1] (Dosage 340 μM), the “Absorbance Change (units/min @ 340 nm)” value came out at 0.36 units/min and the “Relative Increase (%)” value was determined as 360%. For `O=C(O)CCc1cc(I)c(Oc2cc(I)c(O)c(I)c2)c(I)c1` [3,3,5,5′-tetraiodothyropropionic acid], in data set [1] (Dosage 17 μM), the “Absorbance Change (units/min @ 340 nm)” value turned out to be 0.75 units/min and the “Relative Increase (%)” value is on record as 750%.
